Literature values, collected in patent publication US9233901B2, “Synthetic navel orangeworm pheromone composition and methods relating to production of same” (Suterra LLC, priority 2008, dated 2016).

Test system: major pheromone binding protein (AtraPBP)
Settings: shown in other studies (Leal et al. 2005)

affinity for binding to a major pheromone binding protein (AtraPBP): high affinity
Structure (SMILES): CC/C=C\C=C/CCCCCCCCCC=O [HDAL, (Z, Z)-11,13-hexadecadienal]
